Target: 11-beta-hydroxysteroid dehydrogenase 1 (Homo sapiens, UniProt P28845)
Experiment: Inhibition of FLAG tagged human recombinant 11beta-HSD1 reductase activity expressed in Trichoplusia ni Hi5 cells
Assay type: cell-based, BTI-TN-5B1-4

Chain of 11-beta-hydroxysteroid dehydrogenase 1 (P28845 whole entry): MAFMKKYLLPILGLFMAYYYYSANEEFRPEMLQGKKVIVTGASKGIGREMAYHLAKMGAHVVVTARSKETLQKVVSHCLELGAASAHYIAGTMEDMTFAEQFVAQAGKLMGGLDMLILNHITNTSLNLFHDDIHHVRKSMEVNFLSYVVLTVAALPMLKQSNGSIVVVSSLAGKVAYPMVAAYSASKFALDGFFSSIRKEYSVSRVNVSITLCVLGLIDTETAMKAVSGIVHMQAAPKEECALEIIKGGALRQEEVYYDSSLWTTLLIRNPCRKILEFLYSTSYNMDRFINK

IC50: 1.6 nM
SMILES: CC(C)n1c(-c2ccc(OC(F)(F)F)cc2)nnc1C1(c2ccc(F)cc2)CC1

From ChEMBL document CHEMBL1144222, “Distinctive molecular inhibition mechanisms for selective inhibitors of human 11beta-hydroxysteroid dehydrogenase type 1” (Bioorg Med Chem, 2008)
